US11753408B2, “Compounds and method for blocking transmission of malarial parasite” (The United States of America, as represented by the …, priority 2016, dated 2023)
Where two headings read alike, the source gives them in different places.

Experiments:
Solubility at pH 7.4 = format: physicochemical
mTOR = mTOR (Homo sapiens, UniProt P42345); assay: mTOR activity (no method described); format: biochemical
[1] = tested on: Stage III-V gametocytes (blood stage P. falciparum parasites); assay: In vitro drug activity on gametocytes (AlamarBlue viability assay); format: cell-based, Plasmodium falciparum; settings: read-out: Gametocyte EC50
Method in brief: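 Viability was measured by AlamarBlue fluorescence (Ex 525/Em 598 nm) after 24 h dye incubation following 72 h compound exposure at 37° C, 5% CO2. Gametocytes, stage III–V from strains 3D7, HB3 and Dd2, were NAG/Percoll-enriched and plated at 20,000 cells/well.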

PAMPA permeability = format: in vitro ADME
[2] = tested on: Asexual parasites of P. falciparum strain 3D7; assay: In vitro drug activity on asexual parasites (SYBR Green assay); format: cell-based, Plasmodium falciparum
Method in brief: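 SYBR Green I fluorescence (ex 490, em 520 nm) was read after freeze-thaw lysis and 30 min staining at room temperature. Before that, drug-treated cultures (0.5% parasitemia, 2% hematocrit, DMSO ≤0.5%) were incubated 72 h, in duplicate.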

[3] = Microsomal stability (rat); format: in vitro ADME; settings: rat microsomes
[4] = P. falciparum 3D7 asexual parasites, 72 h, SYBR Green
[5] = P. falciparum stage III-V gametocytes, 72 h incubation, AlamarBlue

CC1CC1NC(=O)c1ccc(-n2c(=O)ccc3cnc4ccc(-c5ccc(N)nc5)cc4c32)cc1 (stereo not drawn) [Compound 338]
Sol @ pH 7.4 (Solubility at pH 7.4): 0.32 ug/mL
mTOR (mTOR): 150.5 nM
EC50 [1]: 65.9 nM
PAMPA Permeability (PAMPA permeability): 141 ×10⁻⁶ cm/s

NC1(c2ccc(-c3ccc4ncc5ccc(=O)n(-c6ccc7c(c6)CNC7=O)c5c4c3)cc2)CCC1 [Compound 368]
Sol @ pH 7.4 (ug/mL) (Solubility at pH 7.4): 6.5 ug/mL
EC50 [2, 4]: 1280 nM
Microsomal Stability (rat) T1/2 [3]: >30 min
EC50 [1, 5]: 2200 nM
PAMPA Permeability (×10^6 cm/s) (PAMPA permeability): 2.9 ×10^6 cm/s

CS(=O)(=O)c1ccc(-n2c(=O)ccc3cnc4ccc(-c5ccc(Cl)c(N)c5)cc4c32)cc1 [Compound 28]
Sol @ pH 7.4 (ug/mL) (Solubility at pH 7.4): <1.0 ug/mL
EC50 [2, 4]: 16.2 nM
Microsomal Stability (rat) T1/2 [3]: >30.0 min
EC50 [1, 5]: 95.3 nM
PAMPA Permeability (×10^6 cm/s) (PAMPA permeability): 33.9 ×10^6 cm/s

CS(=O)(=O)c1ccc(-n2c(=O)ccc3cnc4ccc(-c5ccc(C=O)cc5)cc4c32)cc1 [Compound 65]
Sol @ pH 7.4 (ug/mL) (Solubility at pH 7.4): <1 ug/mL
EC50 [2, 4]: 43.1 nM
Microsomal Stability (rat) T1/2 [3]: 2.9 min
EC50 [1, 5]: 461 nM
PAMPA Permeability (×10^6 cm/s) (PAMPA permeability): 5.4 ×10^6 cm/s

CS(=O)(=O)c1ccc(-n2c(=O)ccc3cnc4ccc(-c5ccc(CN)cc5)cc4c32)cc1 [Compound 47]
Sol @ pH 7.4 (ug/mL) (Solubility at pH 7.4): 2.1 ug/mL
EC50 [2, 4]: 66.4 nM
Microsomal Stability (rat) T1/2 [3]: >30.0 min
EC50 [1, 5]: 377 nM
PAMPA Permeability (×10^6 cm/s) (PAMPA permeability): <2.9 ×10^6 cm/s

Cc1ccc(C#N)cc1-n1c(=O)ccc2cnc3ccc(-c4ccc(Cl)cc4)cc3c21 [Compound 3]
Sol @ pH 7.4 (ug/mL) (Solubility at pH 7.4): <0.1 ug/mL
EC50 [2, 4]: 111 nM
Microsomal Stability (rat) T1/2 [3]: 12.1 min
EC50 [1, 5]: 264 nM
PAMPA Permeability (×10^6 cm/s) (PAMPA permeability): 621.2 ×10^6 cm/s

NS(=O)(=O)c1ccc(-n2c(=O)ccc3cnc4ccc(-c5ccc(Cl)cc5)cc4c32)cc1 [Compound 40]
Sol @ pH 7.4 (ug/mL) (Solubility at pH 7.4): <1.0 ug/mL
EC50 [2, 4]: 14.6 nM
Microsomal Stability (rat) T1/2 [3]: >30.0 min
EC50 [1, 5]: 51.7 nM
PAMPA Permeability (×10^6 cm/s) (PAMPA permeability): <1.0 ×10^6 cm/s

CN(C)Cc1ccc(-c2ccc3ncc4ccc(=O)n(-c5cccc(C#N)c5)c4c3c2)cc1 [Compound 2]
Sol @ pH 7.4 (ug/mL) (Solubility at pH 7.4): >64.0 ug/mL
EC50 [2, 4]: 291 nM
Microsomal Stability (rat) T1/2 [3]: >30.0 min
EC50 [1, 5]: 428 nM
PAMPA Permeability (×10^6 cm/s) (PAMPA permeability): 1040.6 ×10^6 cm/s

Nc1ccc(-c2ccc3ncc4ccc(=O)n(-c5ccc6c(c5)NC(=O)C6)c4c3c2)cn1 [Compound 394]
Sol @ pH 7.4 (ug/mL) (Solubility at pH 7.4): <1 ug/mL
EC50 [2, 4]: 130 nM
Microsomal Stability (rat) T1/2 [3]: >30 min
EC50 [1, 5]: 438 nM
PAMPA Permeability (×10^6 cm/s) (PAMPA permeability): <1 ×10^6 cm/s

Cc1c(C#N)cccc1-n1c(=O)ccc2cnc3ccc(-c4ccc(Cl)cc4)cc3c21 [Compound 8]
Sol @ pH 7.4 (ug/mL) (Solubility at pH 7.4): <1 ug/mL
EC50 [2, 4]: 60.3 nM
Microsomal Stability (rat) T1/2 [3]: 14.5 min
EC50 [1, 5]: 139 nM
PAMPA Permeability (×10^6 cm/s) (PAMPA permeability): <1 ×10^6 cm/s

CS(=O)(=O)c1ccc(-n2c(=O)ccc3cnc4ccc(-c5ccc(Cl)c(C(N)=O)c5)cc4c32)cc1 [Compound 51]
Sol @ pH 7.4 (ug/mL) (Solubility at pH 7.4): 4.3 ug/mL
EC50 [2, 4]: 203 nM
Microsomal Stability (rat) T1/2 [3]: >30.0 min
EC50 [1, 5]: 291 nM
PAMPA Permeability (×10^6 cm/s) (PAMPA permeability): 43.1 ×10^6 cm/s

Cc1cc(N2CCNCC2)c(C#N)cc1-n1c(=O)ccc2cnc3ccc(-c4ccc(Cl)cc4)cc3c21 [Compound 4]
Sol @ pH 7.4 (ug/mL) (Solubility at pH 7.4): <1 ug/mL
EC50 [2, 4]: 14.9 nM
Microsomal Stability (rat) T1/2 [3]: 9.6 min
EC50 [1, 5]: 55 nM
PAMPA Permeability (×10^6 cm/s) (PAMPA permeability): 21 ×10^6 cm/s

O=C1NCc2cc(-n3c(=O)ccc4cnc5ccc(-c6ccc(CCN7CCOCC7)cc6)cc5c43)ccc21 [Compound 372]
Sol @ pH 7.4 (ug/mL) (Solubility at pH 7.4): <1 ug/mL
EC50 [2, 4]: 540 nM
Microsomal Stability (rat) T1/2 [3]: >30 min
EC50 [1, 5]: 1050 nM
PAMPA Permeability (×10^6 cm/s) (PAMPA permeability): <1 ×10^6 cm/s

CN(C)Cc1ccc(-c2ccc3ncc4ccc(=O)n(-c5ccc6c(c5)CCC(=O)N6)c4c3c2)cc1 [Compound 357]
Sol @ pH 7.4 (ug/mL) (Solubility at pH 7.4): >70.00 ug/mL
EC50 [2, 4]: 863 nM
Microsomal Stability (rat) T1/2 [3]: >30.00 min
EC50 [1, 5]: 2200 nM
PAMPA Permeability (×10^6 cm/s) (PAMPA permeability): 40.53 ×10^6 cm/s

NC1(c2ccc(-c3ccc4ncc5ccc(=O)n(-c6ccc7c(c6)CNC7=O)c5c4c3)cc2)CC1 [Compound 373]
Sol @ pH 7.4 (ug/mL) (Solubility at pH 7.4): 3.3 ug/mL
EC50 [2, 4]: 350 nM
Microsomal Stability (rat) T1/2 [3]: >30 min
EC50 [1, 5]: 45.7 nM
PAMPA Permeability (×10^6 cm/s) (PAMPA permeability): <6.3 ×10^6 cm/s

CNC(=O)c1ccc(-n2c(=O)ccc3cnc4ccc(-c5ccc(Cl)cc5)cc4c32)cc1 [Compound 99]
Sol @ pH 7.4 (Solubility at pH 7.4): <1.0 ug/mL
EC50 [2]: 46.7 nM
Microsomal Stability (rat) T1/2 [3]: 16.9 min
EC50 [1]: 130 nM
PAMPA Permeability (PAMPA permeability): 1050 ×10⁻⁶ cm/s

CN(C)S(=O)(=O)c1ccc(-n2c(=O)ccc3cnc4ccc(-c5ccc(Cl)cc5)cc4c32)cc1 [Compound 42]
Sol @ pH 7.4 (ug/mL) (Solubility at pH 7.4): <1.0 ug/mL
EC50 [2, 4]: 37.4 nM
Microsomal Stability (rat) T1/2 [3]: 4.9 min
EC50 [1, 5]: 118 nM
PAMPA Permeability (×10^6 cm/s) (PAMPA permeability): 97.4 ×10^6 cm/s

CN(C)Cc1cccc(-c2ccc3ncc4ccc(=O)n(-c5ccc(C(=O)N6CCOCC6)cc5)c4c3c2)c1 [Compound 173]
Sol @ pH 7.4 (Solubility at pH 7.4): >77.00 ug/mL
mTOR (mTOR): 100000 nM
EC50 [1]: 2530 nM
PAMPA Permeability (PAMPA permeability): 366 ×10⁻⁶ cm/s

CN1C(=O)CCc2cc(-n3c(=O)ccc4cnc5ccc(-c6ccc(N)nc6)cc5c43)ccc21 [Compound 392]
Sol @ pH 7.4 (ug/mL) (Solubility at pH 7.4): 33.81 ug/mL
EC50 [2, 4]: 22 nM
Microsomal Stability (rat) T1/2 [3]: >30.00 min
EC50 [1, 5]: 46.1 nM
PAMPA Permeability (×10^6 cm/s) (PAMPA permeability): 133.39 ×10^6 cm/s

CS(=O)(=O)c1ccc(-n2c(=O)ccc3cnc4ccc(-c5ccc(N)nc5)cc4c32)cc1 [Compound 79]
Sol @ pH 7.4 (ug/mL) (Solubility at pH 7.4): <1.0 ug/mL
EC50 [2, 4]: 4.76 nM
Microsomal Stability (rat) T1/2 [3]: >30.0 min
EC50 [1, 5]: 22.8 nM
PAMPA Permeability (×10^6 cm/s) (PAMPA permeability): <11.8 ×10^6 cm/s

Cn1c(=O)n(-c2ccc(N3CCN(CCO)CC3)c(C#N)c2)c2c3cc(-c4ccc(Cl)cc4)ccc3ncc21 [Compound 417]
Sol @ pH 7.4 (Solubility at pH 7.4): <1 ug/mL
mTOR (mTOR): 319 nM
EC50 [1]: 36.5 nM
PAMPA Permeability (PAMPA permeability): < 1 ×10⁻⁶ cm/s
